# Values quoted from earlier work in patent US20240216299A1, “TRANSMUCOSAL THERAPEUTIC SYSTEM CONTAINING AGOMELATINE” (LTS LOHMANN Therapie-Systeme AG, priority 2019, published 2024).
# [1] = patients with moderate hepatic impairment compared to healthy subjects
smiles,measurement,setting,value
"COc1ccc2cccc(CCNC(C)=O)c2c1 [agomelatine, N-(2-(7-Methoxy-1-naphthyl)ethyl)acetamide]",oral absorption,oral,> 80%
same,overall bioavailability,oral,less than 5%
same,increase in AUC,[1],up to 140 fold
same,increase in Cmax,[1],up to 140 fold
